{"source": "patent US6436890B1", "about": "“Antimicrobial detergent composition” (Inui Corporation, priority 1999, dated 2002)", "assay_type_in_all_cases": "cell-based", "key": {"[1]": {"tested_on": "Staphylococcus aureus IFO 12732", "method": "(§1) L-broth (5 ml) was inoculated with each bacteria and, after incubation at 37° C. for 18 hours, the MIC (minimum inhibitory concentration) was measured according to the Nutrient Broth liquid medium dilution method."}, "[2]": {"tested_on": "Pseudomonas aeruginosa ATCC 10145", "method": "as §1"}, "[3]": {"tested_on": "Escherichia coli K12W3110", "method": "as §1"}, "[4]": {"tested_on": "Bacillus subtilis ATCC 6633", "method": "as §1"}, "[5]": {"tested_on": "Staphylococcus aureus JCI (MRSA)", "assay": "Antimicrobial power against MRSA, MIC by Nutrient Broth liquid medium dilution method", "settings": "for MIC: Staphylococcus aureus JCI (MRSA); for Antimicrobial activity against MRSA (in words): at a low concentration", "method": "Antimicrobial power against MRSA (Methicillin-resistant Staphylococcus aureus) of N,N′-hexamethylenebis (4-carbamoyl-1-decylpyridinium bromide) (“Dimer 38” manufactured by INUI CORPORATION) and 4,4′-(tetramethylenecarbonyldiamino)bis(1-decyl-pyridinium bromide) (“Dimer 136” manufactured by INUI CORPORATION). L-broth (5 ml) was inoculated with Staphylococcus aureus JC1 and, after incubation at 37° C. for 18 hours, the MIC (minimum inhibitory concentration) of Dimer 38 and Dimer 136 was measured according to the Nutrient Broth liquid medium dilution method."}}, "note": "Where two headings read alike, the source gives them in different places.", "data": [{"molecule": "CC(=O)[O-].CC(=O)[O-].CCCCCCCCCC[n+]1ccc(C(=O)NCCCCCCNC(=O)c2cc[n+](CCCCCCCCCC)cc2)cc1", "note": "[Dimer 38A, N,N′-hexamethylenebis(4-carbamoyl-1-decylpyridinium acetate)]", "values": [{"measurement": "MIC", "setting": "[1]; procedure 1 of 7, S. aureus IFO 12732", "result": 0.1, "unit": "ppm"}, {"measurement": "MIC", "setting": "[1]; procedure 2 of 7, S. aureus IFO 12732", "result": 0.01, "unit": "ppm"}, {"measurement": "MIC", "setting": "[1]; procedure 3 of 7, S. aureus IFO 12732", "result": 0.05, "unit": "ppm"}, {"measurement": "MIC", "setting": "[1]; procedure 4 of 7, S. aureus IFO 12732", "result": 0.01, "unit": "ppm"}, {"measurement": "MIC", "setting": "[1]; procedure 5 of 7, S. aureus IFO 12732", "result": 0.1, "unit": "ppm"}, {"measurement": "MIC", "setting": "[1]; procedure 6 of 7, S. aureus IFO 12732", "result": 0.1, "unit": "ppm"}, {"measurement": "MIC", "setting": "[1]; procedure 7 of 7, S. aureus IFO 12732", "result": 0.05, "unit": "ppm"}, {"measurement": "MIC", "setting": "[2]; procedure 1 of 7, P. aeruginosa ATCC 10145", "result": 3.1, "unit": "ppm"}, {"measurement": "MIC", "setting": "[2]; procedure 2 of 7, P. aeruginosa ATCC 10145", "result": 3.1, "unit": "ppm"}, {"measurement": "MIC", "setting": "[2]; procedure 3 of 7, P. aeruginosa ATCC 10145", "result": 6.3, "unit": "ppm"}, {"measurement": "MIC", "setting": "[2]; procedure 4 of 7, P. aeruginosa ATCC 10145", "result": 6.3, "unit": "ppm"}, {"measurement": "MIC", "setting": "[2]; procedure 5 of 7, P. aeruginosa ATCC 10145", "result": 6.3, "unit": "ppm"}, {"measurement": "MIC", "setting": "[2]; procedure 6 of 7, P. aeruginosa ATCC 10145", "result": 6.3, "unit": "ppm"}, {"measurement": "MIC", "setting": "[2]; procedure 7 of 7, P. aeruginosa ATCC 10145", "result": 3.1, "unit": "ppm"}, {"measurement": "MIC", "setting": "[3]; procedure 1 of 7, E. coli K12W3110", "result": 1.6, "unit": "ppm"}, {"measurement": "MIC", "setting": "[3]; procedure 2 of 7, E. coli K12W3110", "result": 0.8, "unit": "ppm"}, {"measurement": "MIC", "setting": "[3]; procedure 3 of 7, E. coli K12W3110", "result": 0.8, "unit": "ppm"}, {"measurement": "MIC", "setting": "[3]; procedure 4 of 7, E. coli K12W3110", "result": 0.8, "unit": "ppm"}, {"measurement": "MIC", "setting": "[3]; procedure 5 of 7, E. coli K12W3110", "result": 1.6, "unit": "ppm"}, {"measurement": "MIC", "setting": "[3]; procedure 6 of 7, E. coli K12W3110", "result": 1.6, "unit": "ppm"}, {"measurement": "MIC", "setting": "[3]; procedure 7 of 7, E. coli K12W3110", "result": 1.6, "unit": "ppm"}, {"measurement": "MIC", "setting": "[4]; procedure 1 of 7, B. subtilis ATCC 6633", "result": 0.8, "unit": "ppm"}, {"measurement": "MIC", "setting": "[4]; procedure 2 of 7, B. subtilis ATCC 6633", "result": 0.2, "unit": "ppm"}, {"measurement": "MIC", "setting": "[4]; procedure 3 of 7, B. subtilis ATCC 6633", "result": 0.4, "unit": "ppm"}, {"measurement": "MIC", "setting": "[4]; procedure 4 of 7, B. subtilis ATCC 6633", "result": 0.2, "unit": "ppm"}, {"measurement": "MIC", "setting": "[4]; procedure 5 of 7, B. subtilis ATCC 6633", "result": 0.4, "unit": "ppm"}, {"measurement": "MIC", "setting": "[4]; procedure 6 of 7, B. subtilis ATCC 6633", "result": 0.4, "unit": "ppm"}, {"measurement": "MIC", "setting": "[4]; procedure 7 of 7, B. subtilis ATCC 6633", "result": 0.4, "unit": "ppm"}]}, {"molecule": "CCCCCCCCCC[n+]1ccc(C(=O)NCCCCCCNC(=O)c2cc[n+](CCCCCCCCCC)cc2)cc1.[Br-].[Br-]", "note": "[Dimer 38, N,N′-Hexamethylenebis(4-carbamoyl-1-decylpyridinium bromide)]", "values": [{"measurement": "MIC", "setting": "[5]", "result": 0.2, "unit": "ppm"}, {"measurement": "Antimicrobial activity against MRSA (in words)", "setting": "[5]", "result": "demonstrate an antimicrobial activity against MRSA"}]}, {"molecule": "4,4′-(tetramethylenedicarbonyldiamino)bis(1-decylpyridinium bromide) [Dimer 136]", "values": [{"measurement": "MIC", "setting": "[5]", "result": 0.6, "unit": "ppm"}, {"measurement": "Antimicrobial activity against MRSA (in words)", "setting": "[5]", "result": "demonstrate an antimicrobial activity against MRSA"}]}]}
